Values joined by “and” are separate entries in the source; they are usually repeats but may differ in a detail not shown here. Equal values may be shown once. Read-outs that look alike come from different tables or passages of the source.
Assays:
[1] = test system: BALB/3T3 clone A31 fibroblast cells; assay: Cytotoxicity screening (WST-1); format: cell-based, murine; settings: Mus musculus, 4 h incubation, read-out: IC50 of cell viability
Experimental: BALB/3T3 clone A31 fibroblast cells were grown in Dulbecco’s Modified Eagle Medium (DMEM), supplemented with 2 mM L-glutamine, 1% penicillin/streptomycin, and 10% bovine calf serum. Cells were grown in a CO2 incubator (Heracell 150i series) at 37 °C and 5% CO2, with cells sub-cultured at 80–90% confluency. The cell monolayers were rinsed with PBS and treated with trypsin–EDTA to detach the cells before their resuspension in fresh media. A subconfluent monolayer of BALB/3T3 clone A31 fibroblast cells was trypsinised, centrifuged at 1000 rpm for 5 min, resuspended in growth medium, and counted.
A cytotoxicity screening was carried out for both ILs (range […]), as well as DIA and Rhe (0.5–200 mg/mL). Briefly, BALB/3T3 clone A31 fibroblast cells were seeded in each well of 96-well plates at a seeding density of 6 × 10^3 cells/well for 24 h, until 60–70% confluence was reached. After 24 h, the medium was then removed from each well and replaced with DMEM containing the samples.
After 4 h of incubation, the media were removed, replaced with fresh medium containing 10% WST-1 reagent solution, and maintained for 4 h at 37° C with 5% CO2. Afterwards, formazan dye absorbance was quantified at 450 nm with the reference wavelength at 655 nm by using a multilabel reader (BioTek 800/TS, Thermo Scientific).

[2] = IL aggregates' size and zeta potential in aqueous solutions (DLS, Zetasizer); format: physicochemical
Experimental: The size distribution and zeta potential values of the ILs’ aggregates in aqueous solutions were evaluated by using a Zetasizer Nano ZS (Malvern) at 25 °C. The samples were prepared by adding an excess of either DIA or Rhe (5 mg/mL) to the aqueous IL solutions, incubating them for 30 min at 25 °C, and finally removing the excess drugs by centrifugation. […] In contrast, for PB solutions, the solutions were prepared in water, and […] of 100 mM pH 7 phosphate buffer was added per 1 mL of aqueous solution, directly in the cuvette, before the dynamic light scattering (DLS) analysis started. The concentrations of the solubilised drug were determined by UV–Vis analysis.

P. aeruginosa ATCC 27853 = assay: Killing assay; format: cell-based, Pseudomonas aeruginosa; settings: 3 h incubation in 5% TSB, ILs 0.27 M
Experimental: (§1) To this end, the bacterial strains were grown in TSB until the exponential phase, and approximately 5 × 10^4 CFU/mL-contained in 10 μL-was added to 5 μL of TSB, 35 μL of water, and 50 μL of one of the following solutions corresponding to the eye drop compositions tested in vivo: Bet6 or Carn6 with 0.27 M or 0.34 M DIA, plain DIA (0.34 M) solution, or plain Bet6/plain Carn6, both at 0.27 M. All solutions were prepared in CB. The samples were incubated at 37 °C with shaking for 3 h. A sample containing 0.6% DMSO (corresponding to the highest concentration of DMSO tested) was used as a control. Following incubation, the samples were diluted 10-fold in LB and plated on tryptone soy agar (TSA, Oxoid) to determine the number of CFU. Bactericidal activity was defined as a reduction of at least 3 Log10 in the number of viable bacteria as compared to the inoculum.

[3] = test system: type II porcine gastric mucin; assay: Mucoadhesion by microrheological method; format: physicochemical
Experimental: The measurements were performed using the Zetasizer Nano ZS instrument, as previously reported. The microrheological characterisation of the ILs was performed using type II porcine gastric mucin. Porcine gastric mucin was used because no ocular mucins were available, and as it has already been used for ocular models. Briefly, a 3 mg/mL suspension of type II porcine gastric mucin was prepared in Milli-Q water and filtered through 0.45 µm cellulose acetate filters. Next, 0.27 M and 0.20 M solutions of both ionic liquids in deionised water were prepared (corresponding to concentrations 15% higher and lower than the CAC, respectively). One millilitre of each sample to be tested had the following composition: 5 µL of tracer (latex polystyrene particles, diameter 500 nm, Beckman), 7.38 mg/mL of IL solution, 0.3 mg of mucin, and 8.1 mg/mL of 5% NaCl. As a reference, 1 mL of sample was prepared with the same composition but without the ILs. All measurements were carried out in triplicate.

S. aureus W4 = assay: Killing assay; format: cell-based, Staphylococcus aureus; settings: 3 h incubation in 5% TSB, ILs 0.27 M
Experimental: as §1

[4] = Critical aggregation concentration (CAC) by surface tension; format: physicochemical; settings: in water
Experimental: The CACs of the ILs were determined by measuring the surface tension (Tensiometer du Nouy, Force Tensiometer K6 from KRÜSS (GmbH)) of aqueous solutions with increasing IL concentrations. Milli-Q H2O was used as a reference, with γ equal to 71 ± 1.3 mN/m at 25 ± 2 °C (Dortmund databank reference, 71.5 ± 0.5 mN/m 24 ± 1.4 °C). Surface tension values were plotted vs. logarithms of the ILs’ concentrations, linear fits were applied to the data points, and CAC was determined as the intersection of the two linear fits relative to the initial surface tension depression and the further plateau.

[5] = IL 180 μg/mL, DIA + (saturation), CB pH5
[6] = IL 180 μg/mL, Rhe + (saturation), PB pH7
[7] = IL 200 μg/mL, DIA + (saturation), CB pH5
[8] = IL 200 μg/mL, DIA + (saturation), H2O pH4
[9] = IL 200 μg/mL, Rhe + (saturation), H2O pH4

CCCCCCOC(=O)C[C@@H](O)C[N+](C)(C)C [Carn6, (R)-(4-hexyloxy-2-hydroxy-4-oxobutyl)-trimethylammonium bromide]
IC50 [1]: 9000 µg/mL | IC50 ([1]; murine fibroblasts): 27.8 mM | PDI ([2]; IL 90 μg/mL, no drug, H2O pH4): 0.01 ± 0.002 | Ø (aggregates size) ([2]; IL 90 μg/mL, no drug, H2O pH4): 1.17 ± 0.03 nm | PDI ([2]; IL 105 μg/mL, no drug, H2O pH4): 0.01 ± 0.002 | Ø (aggregates size) ([2]; IL 105 μg/mL, no drug, H2O pH4): 1.53 ± 0.07 nm | PDI ([2]; IL 170 μg/mL, no drug, H2O pH4): 0.03 ± 0.016 | Ø (aggregates size) ([2]; IL 170 μg/mL, no drug, H2O pH4): 2.12 ± 0.14 nm | PDI [2, 5]: 0.01 ± 0.005 | Ø (aggregates size) [2, 5]: 2.24 ± 0.47 nm | ζ (zeta potential) [2, 5]: 1.85 ± 0.47 mV | PDI [2, 6]: 0.02 ± 0.005 | Ø (aggregates size) [2, 6]: 2.03 ± 0.46 nm | ζ (zeta potential) [2, 6]: 9.38 ± 1.22 mV | PDI ([2]; IL 180 μg/mL, no drug, CB pH5): 0.01 ± 0.005 | Ø (aggregates size) ([2]; IL 180 μg/mL, no drug, CB pH5): 2.04 ± 0.43 nm | ζ (zeta potential) ([2]; IL 180 μg/mL, no drug, CB pH5): 2.56 ± 0.34 mV | PDI ([2]; IL 180 μg/mL, no drug, PB pH7): 0.004± 0.005 | Ø (aggregates size) ([2]; IL 180 μg/mL, no drug, PB pH7): 1.91 ± 0.27 nm | ζ (zeta potential) ([2]; IL 180 μg/mL, no drug, PB pH7): 10.70 ± 1.16 mV | PDI [2, 7]: 0.01 ± 0.005 | Ø (aggregates size) [2, 7]: 2.40 ± 0.56 nm | ζ (zeta potential) [2, 7]: 4.17 ± 0.20 mV | PDI [2, 8]: 0.02 ± 0.005 | Ø (aggregates size) [2, 8]: 2.14 ± 0.55 nm | ζ (zeta potential) [2, 8]: 12.20 ± 1.96 mV | PDI [2, 9]: 0.02 ± 0.005 | Ø (aggregates size) [2, 9]: 2.11 ± 0.50 nm | ζ (zeta potential) [2, 9]: 12.80 ± 1.27 mV | PDI ([2]; IL 200 μg/mL, no drug, CB pH5): 0.07 ± 0.005 | Ø (aggregates size) ([2]; IL 200 μg/mL, no drug, CB pH5): 2.34 ± 0.66 nm | ζ (zeta potential) ([2]; IL 200 μg/mL, no drug, CB pH5): 2.08 ± 0.13 mV | PDI ([2]; IL 200 μg/mL, no drug, H2O pH4): 0.01 ± 0.005 | Ø (aggregates size) ([2]; IL 200 μg/mL, no drug, H2O pH4): 1.87 ± 0.42 nm | ζ (zeta potential) ([2]; IL 200 μg/mL, no drug, H2O pH4): 14.30 ± 2.33 mV | bactericidal effect (P. aeruginosa ATCC 27853; DIA 0.34 M): strong bactericidal effect | CFU after treatment (limit of detection) (P. aeruginosa ATCC 27853; DIA 0.34 M if loaded): < 100 CFU/mL | Relative Viscosity ([3]; mucin with IL at 0.20 M (lower than CAC)): 0.75 ± 0.01 cP | Relative Viscosity ([3]; mucin with IL at 0.27 M (higher than CAC)): 1.31 ± 0.26 cP | bactericidal effect (S. aureus W4; DIA 0.34 M): strong bactericidal effect | CFU after treatment (limit of detection) (S. aureus W4; DIA 0.34 M if loaded): < 100 CFU/mL | surface tension at the CAC (σ) [4]: 36.1 mN/m | critical aggregation concentration (CAC) ([4]; via surface tension): 0.226 M and 0.226 ± 0.020 M
